According to patent US9115085B2, “Crystalline forms of a prolyl hydroxylase inhibitor” (FibroGen, Inc., priority 2012, dated 2015):
One block for each molecule: values may come before it.

Tests used:
[1] = Solid form stability on storage (XRPD); format: physicochemical; conditions: for XRPD pattern / form after storage: 40° C./75% RH
Source text: X-Ray Powder Diffraction patterns were collected on a Bruker AXS C2 GADDS diffractometer using Cu Kα radiation (40 kV, 40 mA), automated XYZ stage, laser video microscope for auto-sample positioning and a HiStar 2-dimensional area detector. X-ray optics consists of a single Gobel multilayer mirror coupled with a pinhole collimator of 0.3 mm. […] Alternatively, X-Ray Powder Diffraction patterns were collected on a Bruker D8 diffractometer using Cu Kα radiation (40 kV, 40 mA), θ-2θ goniometer, and divergence of V4 and receiving slits, a Ge monochromator and a Lynxeye detector. […] The software used for data collection was Diffrac Plus XRD Commander v2.5.0 and the data were analyzed and presented using Diffrac Plus EVA v11.0.0.2 or v13.0.0.2. Samples were run under ambient conditions as flat plate specimens using powder as received. The sample was gently packed into a cavity cut into polished, zero-background (510) silicon wafer. The sample was rotated in its own plane during analysis. The details of the data collection are: • Angular range: 2 to 42°2θ • Step size: 0.05°2θ • Collection time: 0.5 s/step • Analysis duration: 7 minutes Differential Scanning Calorimetry (DSC)

Moisture sorption = format: physicochemical; conditions: from 5% to 95% relative humidity; lost on desorption
Hep3B cells = assay: Cell-based EPO assay; set-up: species or system human; conditions: 30 μM compound in DMSO compared to DMSO only control, 72 hours
Protocol: Hep3B cells (human hepatocellular carcinoma cells from ATCC, cat #HB-8064) were plated at 25,000 cells per well 96 well plates. The next day, the cells were washed once with DMEM (Cellgro, cat #10-013-CM)+0.5% fetal bovine serum (Cellgro, cat #35-010-CV) and incubated with various concentrations of compound or vehicle control (0.15% DMSO) in DMEM+0.5% fetal bovine serum for 72 hours. Cell free culture supernatants were generated by transfer to a conical bottom 96 well plate and centrifugation for 5 minutes at 2000 rpm. The supernatant was quantitated for EPO using a human EPO ELISA kit (R&D Systems, cat #DEP 00). The EPO values for the compounds reported herein (e.g., Table 22) are the measured value for cells plus compound minus the value for the vehicle control for the same cell preparation. The EPO values for the vehicle control for the cell preparations varied from 0-12.5 mIU/mL.

Molecule: [(4-hydroxy-1-methyl-7-phenoxy-isoquinoline-3-carbonyl)-amino]-acetic acid diethanolamine salt [Compound A diethanolamine salt]
- XRPD pattern / form after storage [1]: Pattern 2

Molecule: [(4-hydroxy-1-methyl-7-phenoxy-isoquinoline-3-carbonyl)-amino]-acetic acid hemihydrate [Compound A Form B]
- form conversion on storage ([1]; ambient temperature, full month (32 days), high resolution XRPD): almost completely reverted to anhydrous Form A
- crystalline pattern change on storage ([1]; stored at 25° C./96% RH for twelve days): reverting to Form A

Now from value to molecule, other results behind:

- relative stability of crystalline forms ([1]; among Form B, C, and D of Compound A): most stable crystalline form
- moisture sorption weight gain (Moisture sorption): approximately 0.2%
Molecule: Cc1nc(C(=O)NCC(=O)O)c(O)c2ccc(Oc3ccccc3)cc12 [Compound A Form A, [(4-hydroxy-1-methyl-7-phenoxy-isoquinoline-3-carbonyl)-amino]-acetic acid]
- Cell EPO (Hep3B cells): 182 mIU/mL

- form conversion ([1]; left drying at ambient temperature): converted to Form A
Molecule: Cc1nc(C(=O)NCC(=O)O)c(O)c2ccc(Oc3ccccc3)cc12 [Compound A Form D, [(4-hydroxy-1-methyl-7-phenoxy-isoquinoline-3-carbonyl)-amino]-acetic acid DMSO:water solvate]

- XRPD pattern / form after storage [1]: Pattern 3
Molecule: Cc1nc(C(=O)NCC(=O)O)c(O)c2ccc(Oc3ccccc3)cc12.NCCO [Compound A ethanolamine salt, [(4-hydroxy-1-methyl-7-phenoxy-isoquinoline-3-carbonyl)-amino]-acetic acid ethanolamine salt]
